Test results reported in PMC8156206, “Novel N,N′-Disubstituted Selenoureas as Potential Antioxidant and Cytotoxic Agents” (Antioxidants, 2021).

Assays:
[1] = tested on: BEAS-2B cells (lung non-malignant derived cell line); assay: MTT cell viability assay, BEAS-2B; assay type: cell-based; details: Homo sapiens, 48 h, mean ± SD
Description: (§1) Cell lines were purchased from the American Type Culture Collection (ATCC). MCF-7, HTB-54, BEAS-2B and 184B5 cell lines were grown in RPMI 1640 medium (Gibco) supplemented with 10% fetal bovine serum (FBS; Gibco), 100 units/mL penicillin, and […] streptomycin (Gibco). HT-29 and HCT-116 cell lines was cultured in McCoy’s 5A (Gibco), 10% FBS, 100 units/mL penicillin, and 100 μg/mL streptomycin. Cells were maintained at 37 °C and 5% CO2. Culture medium was replaced every three days.
(§2) A cell viability assay of each compound was carried out using an MTT assay. Each selenourea was dissolved in dimethyl sulfoxide (DMSO) at a concentration of 0.01 M. Serial dilutions were prepared with non-supplemented culture medium. Cytotoxic activity of each selenourea was determined at two different concentrations (10 and 50 µM) in MCF-7, HTB-54, and HT-29 cells. In addition, selected compounds were tested at seven different concentrations (0.1, 1, 5, 10, 25, 50, 100 µM) on MCF-7, HT-29, HCT-116, HTB-54, 184B5, and BEAS-2B cells. The number of passages before defrosting the cells was 3, and they were kept under culture up to a maximum of 15.
(§3) Briefly, 1 × 10^4 cells/well were grown in 96-well plates for 24 h. Then, these cells were incubated with either DMSO (negative control) at 5 µM or a different concentration of each tested selenourea for 48 h. A volume of 20 µL of MTT was added 150 min before the termination point to measure cellular viability. After this time, culture medium was removed. The resultant formazan crystals were dissolved in 50 µL of DMSO, and absorbance was measured at 570 nm. Results are expressed as IC50, the half maximal inhibitory concentration. This value was calculated using GraphPad Prism 7 software by nonlinear curve fitting. Furthermore, the selectivity index (SI) was calculated as the ratio of the IC50 values determined for the non-malignant and the tumoral cells (IC50 (184B5)/IC50 (MCF-7) or (IC50 (BEAS-2B)/IC50 (HTB-54). Data were obtained from at least three independent experiments performed in triplicates.

[2] = tested on: HT-29 cells; assay: Cell cycle progression, propidium iodide flow cytometry; assay type: cell-based, human; details: HT-29, 48 h, 0.1, 1, 5 and 10 µM
Description: (§4) 6 × 10^5 cells/well were grown in 6-well plates for 24 h. Cultures were treated with the corresponding amount of the selected compounds, DMSO (control), or 10 μM camptothecin (positive control). Propidium iodide (PI) was used as DNA stain dye to determine cell cycle distribution. Cells were stored at −20 °C with 70% ethanol for at least 24 h. Then, ethanol was removed, cells were washed with PBS, and stained for 30 min with 500 µL of a solution containing 0.001% triton, 0.2% w/v RNase, and 0.02% PI.
To gain further knowledge about the mechanism of action of 6c, we investigated the effect of this compound on cell cycle progression using flow cytometry analysis, with propidium iodide as a DNA staining agent. We analyzed the effect at 48 h treatment with four different concentrations (0.1, 1, 5, and 10 µM) of compound 6c on HT-29 cells. Camptothecin (10 μM) was used as a positive control. […] The cell cycle modulation of 6c is very similar to camptothecin, the reference compound used in the study.

[3] = tested on: HT-29 cells (colon carcinoma); assay: MTT cell viability assay, HT-29; assay type: cell-based; details: Homo sapiens, 48 h, MTT
Method in brief: (§5)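 Cells at 1 × 10^4/well grown 24 h, then treated 48 h with selenourea at 10 and 50 µM (selected compounds 0.1–100 µM), DMSO as negative control. MTT added 150 min before end, formazan read at 570 nm; IC50 by nonlinear fit, ≥3 independent experiments in triplicate.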

[4] = tested on: MCF-7, HTB-54, HT-29 and HCT-116 cancer cell lines; assay: MTT assay, panel of four cancer cell lines; assay type: cell-based; details: MCF-7, HTB-54, HT-29, HCT-116, read-out: IC50 against the four cancer cell lines tested (all the cell lines)
Description: as §2, §3
Those derivatives that reduced the growth of the cell lines below 50% at 10 µM in at least one cell line were selected for being evaluated at five concentrations between […] and 100 µM. Ten compounds (1d, 1e, 2a, 2d, 3a, 6a, 6b, 6c, 6d, and 6e) passed this threshold and four of them (1e, 6c, 6d and 6e) in all three cancer cell lines. The data are expressed as IC50 (mean ± SD) in a panel of four cancer cell lines (MCF-7, HTB-54, HT-29, and HCT-116), and are shown in Table 1. Cisplatin was used as a standard drug. […] Additionally, reported IC50 values of a well-known antitumor selenocompound, i.e., sodium selenite (Na2SeO3), were used as reference for comparision with the selected selenoureas.

[5] = tested on: HCT-116 cells (colon); assay: MTT cell viability assay, HCT-116; assay type: cell-based; details: Homo sapiens, HCT-116; 48 h, MTT, mean ± SD; read-out: IC50 HCT-116 (colon)
Description: as §1, §2, §3

[6] = tested on: 184B5 cells (breast non-malignant derived cell line); assay: MTT cell viability assay, 184B5; assay type: cell-based; details: Homo sapiens, 184B5; 48 h, MTT, mean ± SD; read-out: IC50 184B5 (breast, non-malignant)
Description: as §1, §2, §3

[7] = tested on: MCF-7 cells (breast adenocarcinoma); assay: MTT cell viability assay, MCF-7; assay type: cell-based, human
Method in brief: as §5

[8] = tested on: HTB-54 cells (lung adenocarcinoma); assay: MTT cell viability assay, HTB-54; assay type: cell-based, human
Method in brief: as §5

[9] = tested on: HT-29 cells; assay: Annexin V-APC/7AAD cell death assay; assay type: cell-based, human
Description: as §4
For the determination of apoptosis, APC Annexin V Apoptosis Detection Kit with 7-AAD from Biolegend® was employed following the staining procedure described by the manufacturer. Samples were analyzed by flow cytometry using a BD Accuri™ C6 Plus Flow Cytometer (Beckton, Dickinson and company, Franklin Lakes (NJ), USA).
Mounting evidence of the anticancer potential of selenium compounds can be found in the literature. […] Remarkably, these mechanisms vary depending on the selenium compound and on cell phenotype. […] Assays were conducted at different 6c concentrations ranging from 0.1 to 10 µM. Camptothecin (10 µM) was used as positive control.

[10] = HT-29, 6c 10 µM, 24 h, 30 min preincubation

COc1ccc(NC(=[Se])NC23CC4CC(CC(C4)C2)C3)cc1 [Compound 6c, N´-adamantyl-N-(4-methoxyphenyl)selenourea]
IC50 [1]: 4.73 ± 0.79 µM | cell cycle modulation [2]: cell cycle arrest at the S phase in a concentration-dependent manner | IC50 ([3]; HT-29, mean ± SD, read-out: IC50 HT-29 (colon)): 5.6 ± 1.24 µM | viability at 10 µM ([3]; HT-29, 10 µM, read-out: cell viability, percentage of live cells): 34.6% | viability at 50 µM ([3]; HT-29, 50 µM, read-out: cell viability, percentage of live cells): 25.7% | IC50 [4]: < 10 µM | IC50 [5]: 3.6 ± 0.74 µM | IC50 [6]: 7.23 ± 2.28 µM | IC50 ([7]; Homo sapiens, MCF7, 48 h, MTT, mean ± SD, read-out: IC50 MCF-7 (breast)): 4.94 ± 1.99 µM | viability at 10 µM ([7]; Homo sapiens, MCF7, MCF-7, 10 µM, 48 h, MTT, read-out: cell viability, percentage of live cells): 37.9% | viability at 50 µM ([7]; Homo sapiens, MCF7, MCF-7, 50 µM, 48 h, MTT, read-out: cell viability, percentage of live cells): 9.2% | SI (selectivity index) breast ([7]; IC50 (184B5)/IC50 (MCF-7)): 1.46 | IC50 ([8]; Homo sapiens, HTB-54, 48 h, MTT, mean ± SD, read-out: IC50 HTB-54 (lung)): 5.09 ± 0.28 µM | viability at 10 µM ([8]; Homo sapiens, HTB-54, 10 µM, 48 h, MTT, read-out: cell viability, percentage of live cells): 33.1% | viability at 50 µM ([8]; Homo sapiens, HTB-54, 50 µM, 48 h, MTT, read-out: cell viability, percentage of live cells): 30.9% | SI (selectivity index) lung ([8]; IC50 (BEAS-2B)/IC50 (HTB-54)): 0.93 | cell death after pre-incubation with PI3K inhibitor wortmannin [9, 10]: prevented induction cell death | number of dead cells after pre-incubation with pancaspase inhibitor z-VAD-fmk [9, 10]: no significant differences in the number of dead cells | number of dead cells (7AAD positive cells) ([9]; HT-29, 48 h, 5 and 10 µM): increased the number of dead cells
